The numbers were not newly measured in patent US11293039B2, “Method for producing organic acid salts from fermentation broth” (METABOLIC EXPLORER, priority 2017, dated 2022), which cites them from elsewhere.

The conditions of this series: dilute aqueous solution, 25 °C.
For the compound `O=C(O)C(O)CO` (stereo not shown) [Glyceric acid], the pKa is given as 3.52.

With `O=C(O)CCCCCCC(=O)O` [Octanedioic acid], the pKa is listed as 4.52.

Take `O=C(O)CCCl` [3-Chloropropanoic acid]: the pKa is on record as 3.98.

With `CC(CC(=O)O)CC(=O)O` [3-Methylglutaric acid], the pKa is given as 4.24.

For the compound `O=C(O)[C@@H]1CCCCN1` [l-Pipecolic acid], the pKa is reported as 2.28.

As to `CC(Cl)C(=O)O` (stereo not shown) [2-Chloropropanoic acid], the pKa is 2.83.

In the case of `N#CCCCC(=O)O` [4-Cyanobutanoic acid], the pKa is listed as 2.42.

Turning to Alloxanic acid, the pKa is listed as 6.64.

Take `CC(C(=O)O)C(=O)O` [Methymalonic acid]: the pKa is on record as 3.07.

In the case of `N#CCC(=O)O` [Cyanoacetic acid], the pKa was 2.45.

What is called pKa is the negative logarithm of the acid dissociation constant.
